# Patent publication EP4786451A1, “COMPOUND TARGETING INTEGRIN AND USE THEREOF IN RNAI AGENT” (YUN HO BIO CO., LTD, priority 2023, dated 2025)
# Where “and” joins values, the source holds several entries; their conditions need not be identical. Equal values may be shown once. Read-outs that look alike come from different tables or passages of the source.
# Experiments:
# [1] = target: Integrin αvβ5 Receptor (Homo sapiens, UniProt P06756+P18084); assay: HTRF binding activity to integrin αvβ5 receptor (competition with Vitronectin)
# Procedure: B. Evaluation of Compound Binding Activity to Integrin αvβ5 Receptor using Homogeneous Time-Resolved Fluorescence (HTRF) Technology
# Compound Preparation: Same as A.
# Then 5 µL of integrin receptor protein αvβ5 was added (5 µL of assay buffer was added for negative control), incubated at room temperature for 20 minutes. Next, 5 µL of ligand protein VTN, and 10 µL of the SA-Tb and Anti-His XL665 mixture were added respectively, incubated at room temperature for 1 hour.
# [2] = target: T1, Integrin αvβ6 Receptor (Homo sapiens, UniProt P06756+P18564); assay: HTRF binding activity to integrin αvβ6 receptor (competition with LAP (TGF-beta 1)); details: for specific binding ability to the αvβ6 receptor: αvβ6 compared with αvβ1 and αvβ5; for Hillslope: fit parameter of the inhibition curve; for Max: maximum of the inhibition curve; for Min: minimum of the inhibition curve
# Procedure: Main Experimental Reagents and Consumables
# Inhibition rate and fit IC50 was calculated using Excel and XL-Fit respectively, formula as follows: Inhibition % = (Max−Signal)/(Max−Min)*100 [formula] Y = Bottom + (Top−Bottom)/(1+(IC50/X)[…]), [formula] Y and X represent %inhibition and compound concentration respectively
# [3] = target: Integrin αvβ1 Receptor (Homo sapiens, UniProt P05556+P06756); assay: Fluorescence polarization (FP) binding activity to integrin αvβ1 receptor (competition with Cyclo[-RGDy-K(5-FAM)]); details: Table 4, different integrin receptors
# [4] = target: T1, Integrin αvβ6 Receptor; assay: HTRF binding activity to integrin αvβ6 receptor (competition with LAP (TGF-beta 1)); details: for Hillslope: fit parameter of the inhibition curve; for Emax: maximum of the inhibition curve, read-out: Max; for IC50: table of 5FAM-labelled compounds
# Procedure: Reagent Preparation: Assay buffer was prepared.
# [5] = IC50 (nM) αvβ5, Table 4, different integrin receptors
# [6] = Integrin αvβ6, HTRF, Table 3, several runs, each with Cilengitide and 1 as references, read-out: IC50
# [7] = Table 4, different integrin receptors, read-out: IC50 (nM) αvβ6
# [8] = Integrin αvβ6, HTRF, table of 5FAM-labelled compounds, read-out: IC50
# Chain of Integrin αvβ5 Receptor (P06756 31-992 limits assumed): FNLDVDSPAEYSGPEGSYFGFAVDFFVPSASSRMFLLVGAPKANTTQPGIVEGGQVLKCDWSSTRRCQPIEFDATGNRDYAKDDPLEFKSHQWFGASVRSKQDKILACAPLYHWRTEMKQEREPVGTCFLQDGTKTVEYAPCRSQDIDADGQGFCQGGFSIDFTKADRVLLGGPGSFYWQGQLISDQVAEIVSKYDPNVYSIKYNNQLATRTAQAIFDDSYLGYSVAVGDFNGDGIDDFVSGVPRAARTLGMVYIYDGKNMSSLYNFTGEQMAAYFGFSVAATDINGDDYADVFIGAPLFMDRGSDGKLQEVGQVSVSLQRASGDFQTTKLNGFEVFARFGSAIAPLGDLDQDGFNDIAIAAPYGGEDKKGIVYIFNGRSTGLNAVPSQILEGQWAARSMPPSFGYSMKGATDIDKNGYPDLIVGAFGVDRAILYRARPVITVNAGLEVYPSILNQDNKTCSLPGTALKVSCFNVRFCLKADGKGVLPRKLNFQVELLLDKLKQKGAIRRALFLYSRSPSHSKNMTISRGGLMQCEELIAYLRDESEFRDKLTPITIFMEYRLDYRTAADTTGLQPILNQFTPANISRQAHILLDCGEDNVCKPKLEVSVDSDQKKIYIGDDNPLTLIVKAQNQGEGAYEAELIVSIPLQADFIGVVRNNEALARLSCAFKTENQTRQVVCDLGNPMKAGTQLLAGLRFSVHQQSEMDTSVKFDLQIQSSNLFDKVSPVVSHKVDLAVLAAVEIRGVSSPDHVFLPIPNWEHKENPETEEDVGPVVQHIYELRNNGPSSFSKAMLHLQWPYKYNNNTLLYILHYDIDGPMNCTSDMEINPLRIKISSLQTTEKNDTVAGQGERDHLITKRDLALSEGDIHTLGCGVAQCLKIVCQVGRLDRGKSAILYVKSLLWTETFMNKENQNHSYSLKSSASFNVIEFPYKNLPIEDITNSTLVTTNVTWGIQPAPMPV
# Chain of Integrin αvβ5 Receptor (P18084 24-719 limits assumed): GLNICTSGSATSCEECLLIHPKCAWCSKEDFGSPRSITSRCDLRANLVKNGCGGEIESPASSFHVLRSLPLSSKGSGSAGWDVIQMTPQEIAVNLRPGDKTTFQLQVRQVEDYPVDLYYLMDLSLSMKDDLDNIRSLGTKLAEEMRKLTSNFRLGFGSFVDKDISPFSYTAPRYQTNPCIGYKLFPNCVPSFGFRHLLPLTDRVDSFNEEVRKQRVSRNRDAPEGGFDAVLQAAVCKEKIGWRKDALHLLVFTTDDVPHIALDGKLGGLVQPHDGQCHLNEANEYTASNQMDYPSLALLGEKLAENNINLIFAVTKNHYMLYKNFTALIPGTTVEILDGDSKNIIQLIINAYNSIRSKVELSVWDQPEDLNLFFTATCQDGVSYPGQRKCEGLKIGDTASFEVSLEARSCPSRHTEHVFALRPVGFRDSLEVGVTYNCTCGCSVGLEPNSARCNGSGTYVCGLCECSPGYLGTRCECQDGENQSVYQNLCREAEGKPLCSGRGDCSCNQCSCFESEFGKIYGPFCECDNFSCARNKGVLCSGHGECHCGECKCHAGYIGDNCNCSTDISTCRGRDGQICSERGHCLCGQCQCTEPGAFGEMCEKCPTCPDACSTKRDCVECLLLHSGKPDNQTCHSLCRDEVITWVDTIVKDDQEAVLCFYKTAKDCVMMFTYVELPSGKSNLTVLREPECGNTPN
# T1 sequence (P06756 31-992 limits assumed): as the sequence (P06756 31-992 limits assumed) above
# T1 sequence (P18564 22-707 limits assumed): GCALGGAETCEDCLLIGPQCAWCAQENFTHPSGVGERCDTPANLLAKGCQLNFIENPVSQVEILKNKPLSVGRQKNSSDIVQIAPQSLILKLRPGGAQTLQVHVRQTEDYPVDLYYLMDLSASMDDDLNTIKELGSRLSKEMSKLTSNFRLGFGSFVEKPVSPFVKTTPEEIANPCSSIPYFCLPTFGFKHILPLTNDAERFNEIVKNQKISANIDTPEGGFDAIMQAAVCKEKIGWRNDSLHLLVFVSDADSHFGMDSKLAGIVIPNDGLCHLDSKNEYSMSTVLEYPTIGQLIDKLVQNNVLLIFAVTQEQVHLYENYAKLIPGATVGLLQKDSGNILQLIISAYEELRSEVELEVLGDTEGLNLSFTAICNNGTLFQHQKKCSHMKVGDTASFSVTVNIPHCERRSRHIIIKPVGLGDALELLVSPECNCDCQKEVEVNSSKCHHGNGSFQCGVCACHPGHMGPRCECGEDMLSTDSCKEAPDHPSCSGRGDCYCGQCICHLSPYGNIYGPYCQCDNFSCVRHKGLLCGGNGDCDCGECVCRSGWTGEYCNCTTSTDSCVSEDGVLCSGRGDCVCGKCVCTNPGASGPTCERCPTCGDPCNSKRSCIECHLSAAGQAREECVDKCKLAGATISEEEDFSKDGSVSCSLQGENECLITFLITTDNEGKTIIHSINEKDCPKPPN
# Chain of Integrin αvβ1 Receptor (P06756 31-992 limits assumed): as the sequence (P06756 31-992 limits assumed) above
# Chain of Integrin αvβ1 Receptor (P05556 21-728 limits assumed): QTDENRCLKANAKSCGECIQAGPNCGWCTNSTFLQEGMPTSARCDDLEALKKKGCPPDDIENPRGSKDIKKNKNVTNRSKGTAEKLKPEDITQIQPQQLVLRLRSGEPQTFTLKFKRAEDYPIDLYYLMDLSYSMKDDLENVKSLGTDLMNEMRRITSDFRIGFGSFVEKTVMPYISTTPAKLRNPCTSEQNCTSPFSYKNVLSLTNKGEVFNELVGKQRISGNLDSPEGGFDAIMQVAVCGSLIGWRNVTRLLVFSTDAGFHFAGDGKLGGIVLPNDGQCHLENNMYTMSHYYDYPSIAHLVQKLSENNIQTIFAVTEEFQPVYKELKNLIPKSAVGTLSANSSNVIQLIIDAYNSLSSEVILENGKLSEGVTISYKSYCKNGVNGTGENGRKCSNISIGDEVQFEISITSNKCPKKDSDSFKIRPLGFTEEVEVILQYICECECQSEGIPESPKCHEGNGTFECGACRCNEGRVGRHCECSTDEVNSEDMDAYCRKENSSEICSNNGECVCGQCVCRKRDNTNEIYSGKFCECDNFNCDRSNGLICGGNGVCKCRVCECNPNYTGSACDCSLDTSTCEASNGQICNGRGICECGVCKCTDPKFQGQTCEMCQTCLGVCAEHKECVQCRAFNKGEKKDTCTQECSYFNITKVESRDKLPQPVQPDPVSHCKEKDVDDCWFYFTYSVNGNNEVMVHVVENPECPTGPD
compound,measurement,setting,value
"Cc1ccnc(NCCC2CCN(CC(=O)NC(CC(=O)O)c3ccc(-c4ccc(OCCOCCOCCOCCOCCN=[N+]=[N-])c5ccccc45)cc3)C2=O)c1 (single isomer, unassigned) [Compound 5-P1]",IC50,[1]; [5],83.4 nM
same,IC50,[2]; [6],3.6 nM
same,IC50,[2]; [7],3.6 nM
same,specific binding ability to the αvβ6 receptor,[2],specific binding ability to the αvβ6 receptor
same,IC50,[3],753 nM
"Cc1ccnc(NCCC2CCN(CC(=O)NC(CC(=O)O)c3ccc(-c4ccc(OCCOCCOCCOCCOCCN=[N+]=[N-])c5ccccc45)cc3)C2=O)c1 (single isomer, unassigned) [Compound 5-P2]",IC50,[1]; [5],142 nM
same,IC50,[2]; [6],3.9 nM
same,IC50,[2]; [7],3.9 nM
same,specific binding ability to the αvβ6 receptor,[2],specific binding ability to the αvβ6 receptor
same,IC50,[3],333 nM
"Cc1nn(-c2cccc(C(CC(=O)O)CN3CC[C@@H](CCc4ccc5c(n4)NCCC5)C3)c2)c(C)c1OCCOCCOCCOCCOCCN=[N+]=[N-] (single isomer, unassigned) [Compound 14-P1]",IC50,[2]; [6],9.4 nM
"Cc1nn(-c2cccc(C(CC(=O)O)CN3CC[C@@H](CCc4ccc5c(n4)NCCC5)C3)c2)c(C)c1OCCOCCOCCOCCOCCN=[N+]=[N-] (single isomer, unassigned) [Compound 14-P2]",IC50,"[1]; read-out: IC50 (nM) αvβ5, Table 4, different integrin receptors",0.7 nM
same,IC50,[2]; [6],3.5 nM
same,IC50,[2]; [7],3.9 nM
same,IC50,[3],10.3 nM
"[N-]=[N+]=NCCOCCOCCOCCOCCOc1cccc([C@H](CC(=O)O)CN2CC[C@@H](CCc3ccc4c(n3)NCCC4)C2)c1 (single isomer, unassigned) [Compound 18-P1]",IC50,[1]; [5],0.6 nM
same,IC50,[2]; [6],3.2 nM
same,IC50,[2]; [7],3.2 nM
same,IC50,[3],9.1 nM
"[N-]=[N+]=NCCOCCOCCOCCOCCOc1ccc([C@H](CC(=O)O)CN2CC[C@@H](CCc3ccc4c(n3)NCCC4)C2)cc1 (single isomer, unassigned) [Compound 20-P1]",IC50,[1]; [5],0.7 nM
same,IC50,[2]; [6],3.7 nM
same,IC50,[2]; [7],3.7 nM
same,IC50,[3],8.1 nM
"CC(C)[C@H]1C(=O)N[C@@H](CCCNC(=N)N)C(=O)NCC(=O)N[C@@H](CC(=O)O)C(=O)N[C@H](Cc2ccccc2)C(=O)N1C [Cilengitide, reference compound]",Hillslope,[4],1.2
same,Emax,[4],98.2%
"Cc1ccnc(NCCCC(=O)NCC(=O)N[C@@H](CC(=O)O)c2ccc(-c3ccc(OCCOCCOCCOCCOCCN=[N+]=[N-])c4ccccc34)cc2)c1 [Compound 1, reference compound]",IC50,[1]; [5],3.4 nM
same,IC50,[2]; [6],2.5 nM and 2.3 nM
same,IC50,[2]; [7],2.5 nM
same,IC50,[3],9.7 nM
Cc1ccnc(NCCCC(=O)NCC(=O)N[C@@H](CC(=O)O)c2ccc(-c3ccc(OCCOCCOCCOCCOCCn4cc(COCCOCCNC(=O)CCC(CCC(=O)NCCOCCOCc5cn(CCOCCOCCOCCOCCOc6ccc(-c7ccc([C@H](CC(=O)O)NC(=O)CNC(=O)CCCNc8cc(C)ccn8)cc7)c7ccccc67)nn5)(CCC(=O)NCCOCCOCc5cn(CCOCCOCCOCCOCCOc6ccc(-c7ccc([C@H](CC(=O)O)NC(=O)CNC(=O)CCCNc8cc(C)ccn8)cc7)c7ccccc67)nn5)NC(=O)CCCC(=O)NCCCCCCNC(=O)c5ccc6c(c5)C(=O)OC65c6ccc(O)cc6Oc6cc(O)ccc65)nn4)c4ccccc34)cc2)c1 [Compound 1-3-5FAM],Hillslope,[4],1.6
same,Emax,[4],107%
same,IC50,[4],2.52 nM
Cc1ccnc(NCCCC(=O)NCC(=O)N[C@@H](CC(=O)O)c2ccc(-c3ccc(OCCOCCOCCOCCOCCn4cc(CNC(=O)c5ccc6c(c5)C(=O)OC65c6ccc(O)cc6Oc6cc(O)ccc65)nn4)c4ccccc34)cc2)c1 [Compound 1-5FAM],Emax,[4],97%
same,IC50,[4],1.41 nM
COC(=O)C[C@H](NC(=O)CNC(=O)CCCN(C(=O)OC(C)(C)C)c1cc(C)ccn1)c1ccc(-c2ccc(OCCOCCOCCOCCOCCn3cc(CNC(=O)c4ccc5c(c4)C(=O)OC54c5ccc(O)cc5Oc5cc(O)ccc54)nn3)c3ccccc23)cc1 [Compound 1NG-5FAM],Hillslope,[4],2.5
same,Emax,[4],100%
same,IC50,[4],41.9 nM
Cc1ccnc(NCCCC(=O)N2CCN(C(CC(=O)O)c3ccc(-c4ccc(OCCOCCOCCOCCOCCn5cc(CNC(=O)c6ccc7c(c6)C(=O)OC76c7ccc(O)cc7Oc7cc(O)ccc76)nn5)c5ccccc45)cc3)CC2)c1 (stereo not drawn) [Compound 4-5FAM],Hillslope,[4],1.1
same,Emax,[4],100%
Cc1ccnc(NCCC2CCN(CC(=O)N[C@@H](CC(=O)O)c3ccc(-c4ccc(OCCOCCOCCOCCOCCn5cc(CNC(=O)c6ccc7c(c6)C(=O)OC76c7ccc(O)cc7Oc7cc(O)ccc76)nn5)c5ccccc45)cc3)C2=O)c1 (stereo partly drawn) [Compound 5-5FAM],Hillslope,[4],1.3
same,Emax,[4],107%
O=C(O)c1ccc2c(c1)C(=O)OC21c2ccc(O)cc2Oc2cc(O)ccc21 [Compound 5FAM],Hillslope,"[2]; Integrin αvβ6, HTRF",-11.5
same,Max,"[2]; Integrin αvβ6, HTRF",6.3
same,Min,"[2]; Integrin αvβ6, HTRF",-2.8
same,IC50,[2]; [8],> 100 nM
CNc1cccc(CC(=O)NCC(=O)N[C@@H](CC(=O)O)c2ccc(-c3ccc(OCCOCCOCCOCCOCCn4cc(CNC(=O)c5ccc6c(c5)C(=O)OC65c6ccc(O)cc6Oc6cc(O)ccc65)nn4)c4ccccc34)cc2)n1 [Compound 6-5FAM],Hillslope,[4],1.2
same,Emax,[4],95.8%
same,IC50,[4],1.6 nM
CNc1cccc(CCCCC(=O)N[C@@H](CC(=O)O)c2ccc(-c3ccc(OCCOCCOCCOCCOCCn4cc(CNC(=O)c5ccc6c(c5)C(=O)OC65c6ccc(O)cc6Oc6cc(O)ccc65)nn4)c4ccccc34)cc2)n1 [Compound 7-5FAM],Hillslope,[4],1.2
same,Emax,[4],102%
same,IC50,[4],3.17 nM
[N-]=[N+]=NCCOCCOCCOCCOCCOc1ccc(-c2ccc([C@H](CC(=O)O)NC(=O)CCCCc3ccc4c(n3)NCCC4)cc2)c2ccccc12 [Compound 8],Hillslope,"[2]; Integrin αvβ6, HTRF",2.5
same,Max,"[2]; Integrin αvβ6, HTRF",107.0
same,Min,"[2]; Integrin αvβ6, HTRF",-2.0
same,IC50,[2]; [8],1.37 nM
O=C(O)CC(NC(=O)CCCCc1nc2c(cc1CNC(=O)CCOCCOCCOCCOCCNC(=O)c1ccc3c(c1)C(=O)OC31c3ccc(O)cc3Oc3cc(O)ccc31)CCCN2)c1ccc(-c2cccc3ccccc23)cc1 (stereo not drawn) [Compound 9-5FAM],Hillslope,"[2]; Integrin αvβ6, HTRF",2.0
same,Max,"[2]; Integrin αvβ6, HTRF",103.1
same,Min,"[2]; Integrin αvβ6, HTRF",-2.2
same,IC50,[2]; [8],1.48 nM
Cc1cc(C)n(-c2cccc(C(CC(=O)O)CN3CCC(CCc4nc5c(cc4CNC(=O)CCOCCOCCOCCOCCN=[N+]=[N-])CCCN5)C3)c2)n1 (stereo not drawn) [Compound 13],IC50,[2]; [6],2.5 nM and 1.7 nM
Cc1nn(-c2cccc(C(CC(=O)O)CN3CC[C@@H](CCc4ccc5c(n4)NCCC5)C3)c2)c(C)c1OCCOCCOCCOCCOCCN=[N+]=[N-] (stereo partly drawn) [Compound 14],IC50,[2]; [6],4.9 nM and 2.8 nM
Cc1nc(C)n(CCOCCOCCOCCOCCN=[N+]=[N-])c1-c1cccc(C(CC(=O)O)CN2CC[C@@H](CCc3ccc4c(n3)NCCC4)C2)c1 (stereo partly drawn) [Compound 15],IC50,[2]; [6],2.5 nM
O=C(NCc1cn(CCOCCOCCOCCOCCOCCN(CCCCc2ccc3c(n2)NCCC3)CC[C@H](Nc2ncnc3ccccc23)C(=O)O)nn1)c1ccc2c(c1)C(=O)OC21c2ccc(O)cc2Oc2cc(O)ccc21 [Compound 16-5FAM],Hillslope,[4],1.4
same,Emax,[4],101%
same,IC50,[4],1.77 nM
COCCN(CCCCc1ccc2c(n1)NCCC2)CC[C@H](Nc1ncnc2cc(OCCOCCOCCOCCOCCn3cc(CNC(=O)c4ccc5c(c4)C(=O)OC54c5ccc(O)cc5Oc5cc(O)ccc54)nn3)ccc12)C(=O)O [Compound 17-5FAM],Hillslope,[4],1.5
same,Emax,[4],98.9%
same,IC50,[4],7.99 nM
[N-]=[N+]=NCCOCCOCCOCCOCCOc1cccc(C(CC(=O)O)CN2CCC(CCc3ccc4c(n3)NCCC4)C2)c1 (stereo not drawn) [Compound 18-P2],IC50,[2]; [6],13.9 nM
[N-]=[N+]=NCCOCCOCCOCCOCCOc1ccc(C(CC(=O)O)CN2CCC(CCc3ccc4c(n3)NCCC4)C2)cc1 (stereo not drawn) [Compound 20-P2],IC50,[2]; [6],13.4 nM
[N-]=[N+]=NCCOCCOCCOCCOCCOc1ccc(-c2ccc(C(CC(=O)O)CN3CCC(CCc4ccc5c(n4)NCCC5)C3)cc2)c2ccccc12 (stereo not drawn) [Compound 49],IC50,[2]; [6],3.1 nM
[N-]=[N+]=NCCOCCOCCOCCOCCOc1ccc(F)c(C(CC(=O)O)CN2CCC(CCc3ccc4c(n3)NCCC4)C2)c1 (stereo not drawn) [Compound 53],IC50,[2]; [6],3.8 nM
COCCOc1cc(OCCOCCOCCOCCOCCN=[N+]=[N-])cc(C(CC(=O)O)CN2CCC(CCc3ccc4c(n3)NCCC4)C2)c1 (stereo not drawn) [Compound 57],IC50,[2]; [6],3.3 nM
[N-]=[N+]=NCCOCCOCCOCCOCCOc1cc(-c2ccccc2)cc(C(CC(=O)O)CN2CCC(CCc3ccc4c(n3)NCCC4)C2)c1 (stereo not drawn) [Compound 59],IC50,[2]; [6],2.9 nM
[N-]=[N+]=NCCOCCOCCOCCOCCOc1cccc2c(-c3ccc(C(CC(=O)O)CN4CCC(CCc5ccc6c(n5)NCCC6)C4)cc3)cccc12 (stereo not drawn) [Compound 71],IC50,[2]; [6],3 nM
[N-]=[N+]=NCCOCCOCCOCCOCCOc1ccc(C(CC(=O)O)CN2CCC(CCc3ccc4c(n3)NCCC4)C2)cc1F (stereo not drawn) [Compound 83],IC50,[2]; [6],3.7 nM
[N-]=[N+]=NCCOCCOCCOCCOCCOc1ccc(-c2ccc(C(CC(=O)O)CN3CCC(CCc4ccc5c(n4)NCCC5)C3)cc2)cc1 (stereo not drawn) [Compound 84],IC50,[2]; [6],3.8 nM
[N-]=[N+]=NCCOCCOCCOCCOCCOc1cc(C(CC(=O)O)CN2CCC(CCc3ccc4c(n3)NCCC4)C2)ccc1F (stereo not drawn) [Compound 86],IC50,[2]; [6],4.5 nM
